Laboratory results reported in patent US7259153B2, “Drug formulation and delivery using crystalline methylated cyclodextrins” (Supernus Pharmaceuticals, priority 2003, dated 2007).
Values after ≈ are worked out from the molar mass of the structure shown. Read-outs that look alike come from different tables or passages of the source.

How the values were obtained:
[1] = set by the WHO; cited from earlier work
[2] = water; cited from earlier work
[3] = Equilibrium solubility of drug substance in media with solubilizer (excess drug, rotated 48 hours at room temperature, filtered, HPLC); assay type: physicochemical; settings: for solubility enhancement ratio: vs vehicle alone; for solubility at 48 h: thermodynamic from solid
Description: An excess of drug substance was added to 20 ml glass liquid scintillation vials (Kimble Glass Inc., Vineland, N.J.) containing 10 ml of the media with a specific amount of solubilizer. […] The samples were filtered through a 0.45 μm filter (Acrodisc CR PTFE membrane filter, Gelman Sciences, Ann Arbor, Mich.). After discarding the first mL of the filtrates to eliminate any membrane adsorptive effect, the filtrates were collected for high-performance liquid chromatography (HPLC) analysis for drug concentration.

[4] = Stability of crystalline methylated β-cyclodextrin against heat and humidity; assay type: physicochemical
[5] = Water solubility of the cyclodextrin itself; assay type: physicochemical; settings: room temperature
[6] = 2% (w/v) Cryst. Methylated β-CD, aqueous
[7] = 2% (w/v) HP-β-cyclodextrin, aqueous
[8] = 5% (w/v) Cryst. Methylated β-CD, aqueous
[9] = 5% (w/v) HP-β-cyclodextrin, aqueous
[10] = 10% (w/v) Cryst. Methylated β-CD, aqueous
[11] = 10% (w/v) HP-β-cyclodextrin, aqueous

In the case of `CC(O)CO` (centres unmarked) [propylene glycol], the acceptable daily intake [1] is listed as “up to 25 mg/kg body weight”.
For `OC[C@H]1O[C@@H]2O[C@H]3[C@H](O)[C@@H](O)[C@@H](O[C@H]4[C@H](O)[C@@H](O)[C@@H](O[C@H]5[C@H](O)[C@@H](O)[C@@H](O[C@H]6[C@H](O)[C@@H](O)[C@@H](O[C@H]7[C@H](O)[C@@H](O)[C@@H](O[C@H]8[C@H](O)[C@@H](O)[C@@H](O[C@H]1[C@H](O)[C@H]2O)O[C@@H]8CO)O[C@@H]7CO)O[C@@H]6CO)O[C@@H]5CO)O[C@@H]4CO)O[C@@H]3CO` [β-cyclodextrin], the aqueous solubility [2] is given as 1.8 % w/v.
With `NC(=O)N1c2ccccc2C=Cc2ccccc21` [Carbamazepine] the solubility enhancement ratio ([3]; 1% (w/v) β-Cyclodextrin, aqueous) was 5.9, the solubility at 48 h ([3]; 1% (w/v) β-cyclodextrin in water, aqueous with cosolvent or surfactant or cyclodextrin, 1% (w/v) β-Cyclodextrin, aqueous, read-out: Carbamazepine Solubility) was 669 µg/mL (≈ 2.83 mM) and the solubility at 48 h ([3]; 2% (w/v) Cavasol W7M in water, aqueous with cosolvent or surfactant or cyclodextrin, 2% (w/v) Cavasol W7M, aqueous, read-out: Carbamazepine Solubility) was 1070 µg/mL (≈ 4.52 mM). For the same molecule, the solubility enhancement ratio ([3]; 2% (w/v) Cavasol W7M, aqueous) was 9.5, the solubility enhancement ratio [3, 6] was 13.7 and the solubility at 48 h ([3]; 2% (w/v) HP-β-cyclodextrin in water, aqueous with cosolvent or surfactant or cyclodextrin, 2% (w/v) HP-β-cyclodextrin, aqueous, read-out: Carbamazepine Solubility) was 1240 µg/mL (≈ 5.26 mM). The solubility enhancement ratio [3, 7] was 11.0, the solubility at 48 h ([3]; 2% (w/v) crystalline methylated β-cyclodextrin in water, aqueous with cosolvent or surfactant or cyclodextrin, 2% (w/v) Cryst. Methylated β-CD, aqueous, read-out: Carbamazepine Solubility) was 1540 µg/mL (≈ 6.53 mM) and the solubility enhancement ratio ([3]; 2% (w/v) β-Cyclodextrin, aqueous) was 10.5. It also gave a solubility at 48 h ([3]; 2% (w/v) β-cyclodextrin in water, aqueous with cosolvent or surfactant or cyclodextrin, 2% (w/v) β-Cyclodextrin, aqueous, read-out: Carbamazepine Solubility) of 1190 µg/mL (≈ 5.02 mM), a solubility at 48 h ([3]; 5% (w/v) Cavasol W7M in water, aqueous with cosolvent or surfactant or cyclodextrin, 5% (w/v) Cavasol W7M, aqueous, read-out: Carbamazepine Solubility) of 2580 µg/mL (≈ 10.9 mM) and a solubility enhancement ratio ([3]; 5% (w/v) Cavasol W7M, aqueous) of 22.8. The solubility enhancement ratio [3, 8] was 31.8, the solubility at 48 h ([3]; 5% (w/v) HP-β-cyclodextrin in water, aqueous with cosolvent or surfactant or cyclodextrin, 5% (w/v) HP-β-cyclodextrin, aqueous, read-out: Carbamazepine Solubility) was 2880 µg/mL (≈ 12.2 mM) and the solubility enhancement ratio [3, 9] was 25.4. The solubility at 48 h ([3]; 5% (w/v) crystalline methylated β-cyclodextrin in water, aqueous with cosolvent or surfactant or cyclodextrin, 5% (w/v) Cryst. Methylated β-CD, aqueous, read-out: Carbamazepine Solubility) was 3590 µg/mL (≈ 15.2 mM), the solubility at 48 h ([3]; 7.5% (w/v) Cavasol W7M in water, aqueous with cosolvent or surfactant or cyclodextrin, 7.5% (w/v) Cavasol W7M, aqueous, read-out: Carbamazepine Solubility) was 3760 µg/mL (≈ 15.9 mM) and the solubility enhancement ratio ([3]; 7.5% (w/v) Cavasol W7M, aqueous) was 33.3. For the same molecule, the solubility enhancement ratio ([3]; 7.5% (w/v) Cryst. Methylated β-CD, aqueous) was 47.5, the solubility at 48 h ([3]; 7.5% (w/v) HP-β-cyclodextrin in water, aqueous with cosolvent or surfactant or cyclodextrin, 7.5% (w/v) HP-β-cyclodextrin, aqueous, read-out: Carbamazepine Solubility) was 4870 µg/mL (≈ 20.6 mM) and the solubility enhancement ratio ([3]; 7.5% (w/v) HP-β-cyclodextrin, aqueous) was 43.1. The solubility at 48 h ([3]; 7.5% (w/v) crystalline methylated β-cyclodextrin in water, aqueous with cosolvent or surfactant or cyclodextrin, 7.5% (w/v) Cryst. Methylated β-CD, aqueous, read-out: Carbamazepine Solubility) was 5370 µg/mL (≈ 22.7 mM), the solubility at 48 h ([3]; 10% (w/v) Cavasol W7M in water, aqueous with cosolvent or surfactant or cyclodextrin, 10% (w/v) Cavasol W7M, aqueous, read-out: Carbamazepine Solubility) was 5250 µg/mL (≈ 22.2 mM) and the solubility enhancement ratio ([3]; 10% (w/v) Cavasol W7M, aqueous) was 46.4. For the same molecule, the solubility enhancement ratio [3, 10] was 61.6, the solubility at 48 h ([3]; 10% (w/v) HP-β-cyclodextrin in water, aqueous with cosolvent or surfactant or cyclodextrin, 10% (w/v) HP-β-cyclodextrin, aqueous, read-out: Carbamazepine Solubility) was 6020 µg/mL (≈ 25.5 mM) and the solubility enhancement ratio [3, 11] was 53.3. The solubility at 48 h ([3]; 10% (w/v) crystalline methylated β-cyclodextrin in water, aqueous with cosolvent or surfactant or cyclodextrin, 10% (w/v) Cryst. Methylated β-CD, aqueous, read-out: Carbamazepine Solubility) was 6960 µg/mL (≈ 29.5 mM), the solubility at 48 h ([3]; 20% (w/v) Cavasol W7M in water, aqueous with cosolvent or surfactant or cyclodextrin, 20% (w/v) Cavasol W7M, aqueous, read-out: Carbamazepine Solubility) was 10900 µg/mL (≈ 46.2 mM) and the solubility enhancement ratio ([3]; 20% (w/v) Cavasol W7M, aqueous) was 96.5. For the same molecule, the solubility enhancement ratio ([3]; 20% (w/v) Cryst. Methylated β-CD, aqueous) was 132.4, the solubility at 48 h ([3]; 20% (w/v) HP-β-cyclodextrin in water, aqueous with cosolvent or surfactant or cyclodextrin, 20% (w/v) HP-β-cyclodextrin, aqueous, read-out: Carbamazepine Solubility) was 10700 µg/mL (≈ 45.3 mM) and the solubility enhancement ratio ([3]; 20% (w/v) HP-β-cyclodextrin, aqueous) was 94.8. The solubility at 48 h ([3]; 20% (w/v) crystalline methylated β-cyclodextrin in water, aqueous with cosolvent or surfactant or cyclodextrin, 20% (w/v) Cryst. Methylated β-CD, aqueous (heating to dissolve CD), read-out: Carbamazepine Solubility) was 15000 µg/mL (≈ 63.3 mM), the solubility at 48 h ([3]; PEG 400, organic solvent or mixture, vehicle: PEG 400, read-out: Carbamezepine Solubility) was 77900 µg/mL (≈ 330 mM) and the solubility at 48 h ([3]; Transcutol, organic solvent or mixture, vehicle: Transcutol, read-out: Carbamezepine Solubility) was 78100 µg/mL (≈ 331 mM). The “carbamazepine solubility in propylene glycol relative to aqueous solubility” value ([3]; propylene glycol vs water) was “about 310 fold”, the solubility at 48 h ([3]; propylene glycol, organic solvent or mixture, vehicle: Propylene Glycol, read-out: Carbamezepine Solubility) was 35300 µg/mL (≈ 150 mM) and the “Carbamazepine Solubility” value ([3]; water, 0% (w/v) cyclodextrin) was 113 µg/mL.
With crystalline methylated β-cyclodextrin the “stability against heat and humidity” value [4] was “stable against heat and humidity” and the water solubility [5] was “around 15%”.
`NC(=O)N1c2ccccc2CC(=O)c2ccccc21` [Oxcarbazepine] showed a solubility at 48 h ([3]; 1% (w/v) Cavasol W7M, aqueous, aqueous with cosolvent or surfactant or cyclodextrin, 1% (w/v) Cavasol W7M, aqueous, read-out: Oxcarbazepine Solubility) of 150 µg/mL (≈ 0.595 mM), a solubility enhancement ratio ([3]; 1% (w/v) Cavasol W7M, aqueous) of 2.1 and a solubility at 48 h ([3]; 1% (w/v) Cryst. Methylated β-CD, aqueous, aqueous with cosolvent or surfactant or cyclodextrin, 1% (w/v) Cryst. Methylated β-CD, aqueous, read-out: Oxcarbazepine Solubility) of 230 µg/mL (≈ 0.912 mM). The solubility enhancement ratio ([3]; 1% (w/v) Cryst. Methylated β-CD, aqueous) was 3.3, the solubility at 48 h ([3]; 1% (w/v) HP-β-cyclodextrin, aqueous, aqueous with cosolvent or surfactant or cyclodextrin, 1% (w/v) HP-β-cyclodextrin, aqueous, read-out: Oxcarbazepine Solubility) was 130 µg/mL (≈ 0.515 mM) and the solubility enhancement ratio ([3]; 1% (w/v) HP-β-cyclodextrin, aqueous) was 1.9. The solubility at 48 h ([3]; 1% (w/v) Tween 80, aqueous, aqueous with cosolvent or surfactant or cyclodextrin, 1% (w/v) Tween 80, aqueous, read-out: Oxcarbazepine Solubility) was 120 µg/mL (≈ 0.476 mM), the solubility enhancement ratio ([3]; 1% (w/v) Tween 80, aqueous) was 1.7 and the solubility at 48 h ([3]; 2% (w/v) Cavasol W7M, aqueous, aqueous with cosolvent or surfactant or cyclodextrin, 2% (w/v) Cavasol W7M, aqueous, read-out: Oxcarbazepine Solubility) was 240 µg/mL (≈ 0.951 mM). For the same molecule, the solubility enhancement ratio ([3]; 2% (w/v) Cavasol W7M, aqueous) was 3.4, the solubility at 48 h ([3]; 2% (w/v) Cryst. Methylated β-CD, aqueous, aqueous with cosolvent or surfactant or cyclodextrin, 2% (w/v) Cryst. Methylated β-CD, aqueous, read-out: Oxcarbazepine Solubility) was 310 µg/mL (≈ 1.23 mM) and the solubility enhancement ratio [3, 6] was 4.4. It also gave a solubility at 48 h ([3]; 2% (w/v) HP-β-cyclodextrin, aqueous, aqueous with cosolvent or surfactant or cyclodextrin, 2% (w/v) HP-β-cyclodextrin, aqueous, read-out: Oxcarbazepine Solubility) of 190 µg/mL (≈ 0.753 mM), a solubility enhancement ratio [3, 7] of 2.7 and a solubility at 48 h ([3]; 2% (w/v) Tween 80, aqueous, aqueous with cosolvent or surfactant or cyclodextrin, 2% (w/v) Tween 80, aqueous, read-out: Oxcarbazepine Solubility) of 170 µg/mL (≈ 0.674 mM). The solubility enhancement ratio ([3]; 2% (w/v) Tween 80, aqueous) was 2.4, the solubility enhancement ratio ([3]; 5% (w/v) Cavasol W7M, aqueous) was 7.0 and the solubility enhancement ratio [3, 8] was 11.7. For the same molecule, the solubility enhancement ratio [3, 9] was 4.9, the solubility at 48 h ([3]; 5% (w/v) Tween 80, aqueous, aqueous with cosolvent or surfactant or cyclodextrin, 5% (w/v) Tween 80, aqueous, read-out: Oxcarbazepine Solubility) was 290 µg/mL (≈ 1.15 mM) and the solubility enhancement ratio ([3]; 5% (w/v) Tween 80, aqueous) was 4.1. The solubility enhancement ratio ([3]; 10% (w/v) Cavasol W7M, aqueous) was 9.6, the solubility enhancement ratio [3, 10] was 21.3 and the solubility enhancement ratio [3, 11] was 9.6. For the same molecule, the solubility enhancement ratio ([3]; 10% (w/v) Tween 80, aqueous) was 7.1, the solubility at 48 h ([3]; aqueous media with solubilizer, aqueous with cosolvent or surfactant or cyclodextrin, 5% (w/v) Cavasol W7M, aqueous, read-out: Oxcarbazepine Solubility) was 490 µg/mL (≈ 1.94 mM) and the solubility at 48 h ([3]; aqueous media with solubilizer, aqueous with cosolvent or surfactant or cyclodextrin, 5% (w/v) Cryst. Methylated β-CD, aqueous, read-out: Oxcarbazepine Solubility) was 820 µg/mL (≈ 3.25 mM). For the same molecule, the solubility at 48 h ([3]; aqueous media with solubilizer, aqueous with cosolvent or surfactant or cyclodextrin, 5% (w/v) HP-β-cyclodextrin, aqueous, read-out: Oxcarbazepine Solubility) was 340 µg/mL (≈ 1.35 mM), the solubility at 48 h ([3]; aqueous media with solubilizer, aqueous with cosolvent or surfactant or cyclodextrin, 10% (w/v) Cavasol W7M, aqueous, read-out: Oxcarbazepine Solubility) was 670 µg/mL (≈ 2.66 mM) and the solubility at 48 h ([3]; aqueous media with solubilizer, aqueous with cosolvent or surfactant or cyclodextrin, 10% (w/v) Cryst. Methylated β-CD, aqueous, read-out: Oxcarbazepine Solubility) was 1490 µg/mL (≈ 5.91 mM). The solubility at 48 h ([3]; aqueous media with solubilizer, aqueous with cosolvent or surfactant or cyclodextrin, 10% (w/v) HP-β-cyclodextrin, aqueous, read-out: Oxcarbazepine Solubility) was 670 µg/mL (≈ 2.66 mM), the solubility at 48 h ([3]; aqueous media with solubilizer, aqueous with cosolvent or surfactant or cyclodextrin, 10% (w/v) Tween 80, aqueous, read-out: Oxcarbazepine Solubility) was 500 µg/mL (≈ 1.98 mM) and the “Oxcarbazepine Solubility” value ([3]; water, 0% (w/v) solubilizer) was 70 µg/mL. The solubility at 48 h ([3]; water, water, 0% (w/v) solubilizer, read-out: Oxcarbazepine Solubility) was 70 µg/mL (≈ 0.277 mM).
